Laboratory results: patent US12534748B2, “Engineered beta-subunit of tryptophan synthase for production of non-canonical amino acids” (California Institute of Technology, priority 2015, dated 2026)
Substitutions are numbered along the chain they refer to.

Columns and labels:
[1] = biological target: T1, Pyrococcus furiosus TrpB variant PfTrpB^2G9 (T292S), SEQ ID NO: 10 (Pyrococcus furiosus, UniProt Q8U093, T292S); assay: Tryptophan formation from L-serine and indole, kinetics of PfTrpB^2G9; format: biochemical
T1 sequence (Q8U093 with tags, fused parts or gaps T292S): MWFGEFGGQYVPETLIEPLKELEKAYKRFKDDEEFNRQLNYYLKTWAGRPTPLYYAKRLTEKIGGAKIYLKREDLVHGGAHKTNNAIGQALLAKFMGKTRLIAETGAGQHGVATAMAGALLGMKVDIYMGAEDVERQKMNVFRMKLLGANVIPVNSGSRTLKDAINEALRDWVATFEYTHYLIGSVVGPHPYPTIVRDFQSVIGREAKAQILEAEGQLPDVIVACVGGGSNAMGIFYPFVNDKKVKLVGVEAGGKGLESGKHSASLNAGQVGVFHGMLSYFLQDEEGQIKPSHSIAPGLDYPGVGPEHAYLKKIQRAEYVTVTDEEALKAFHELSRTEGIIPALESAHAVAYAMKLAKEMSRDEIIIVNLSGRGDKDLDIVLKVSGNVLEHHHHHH
Method: (§1) Cloning, Expression, and Purification of PfTrpA and PfTrpB. The genes encoding PfTrpB (UNIPROT ID Q8U093) and PfTrpA (UNIPROT ID Q8U094) were obtained as gBlocks and cloned into pET22(b)+ for expression in E. coli BL21 E. cloni EXPRESS cells (Lucigen). Heterologous protein expression of PfTrpA and PfTrpB was performed in Terrific Broth with 100 μg/mL ampicillin (TBamp) and induced with 500 mM IPTG (final concentration 1 mM). PfTrpB was purified via a HisTrap HP column. PfTrpA was purified via a Q HP HiTrap column (flow-through), followed by ammonium sulfate precipitation, and hydrophobic interaction chromatography on a phenyl Sepharose HP HiTrap column (FIG. 3).
(§2) Kinetics and UV-Vis Spectroscopy.

[2] = biological target: T2, Pyrococcus furiosus TrpB variant PfTrpB^0B2 (P12L, E17G, I68V, T292S, F274S, T321A), SEQ ID NO: 12 (Pyrococcus furiosus, UniProt Q8U093, E17G/F274S/I68V/P12L/T292S/T321A); assay: Tryptophan formation from L-serine and indole, kinetics of PfTrpB^0B2
T2 sequence (Q8U093 with tags, fused parts or gaps P12L/E17G/I68V/F274S/T292S/T321A): T1 sequence (Q8U093 with tags, fused parts or gaps T292S) with P12L, E17G, I68V, F274S, T321A
Method: as §1, §2
PfTrpB^4D11 served as template for a final round of random mutagenesis, for which 1,144 clones were screened.

[3] = test system: Thermococcus kodakarensis TrpB, wild type (literature); conditions: cited from earlier work
[4] = biological target: T3, Archaeoglobus fulgidus TrpB variant AfTrpB^0B2 (P25L, E30G, I80V, F285S, T303S, T332A), SEQ ID NO: 22 (Archaeoglobus fulgidus, UniProt O28672, I80V/L285S/P25L/P30G/T303S/T332A); assay: Tryptophan formation from L-serine and indole, kinetics of AfTrpB^0B2
T3 sequence (O28672 with tags, fused parts or gaps P25L/P30G/I80V/L285S/T303S/T332A): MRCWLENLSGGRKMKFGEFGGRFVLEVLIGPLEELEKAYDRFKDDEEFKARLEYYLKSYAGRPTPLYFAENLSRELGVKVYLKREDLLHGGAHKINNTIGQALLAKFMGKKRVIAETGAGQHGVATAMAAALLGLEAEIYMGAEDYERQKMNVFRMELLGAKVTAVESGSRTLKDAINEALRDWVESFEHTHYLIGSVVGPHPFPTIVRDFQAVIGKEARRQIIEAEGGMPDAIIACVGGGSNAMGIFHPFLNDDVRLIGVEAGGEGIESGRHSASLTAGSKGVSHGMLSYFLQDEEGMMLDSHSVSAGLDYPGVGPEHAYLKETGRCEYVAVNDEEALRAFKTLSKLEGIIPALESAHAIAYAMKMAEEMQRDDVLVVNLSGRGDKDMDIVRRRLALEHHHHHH
Method: Kinetics and UV-Vis Spectroscopy. Data were collected between 550 and 250 nm on a UV1800 Shimadzu spectrophotometer (Shimadzu) using 0.25-20 μM of enzyme in 200 mM potassium phosphate (pH 8.0) in a quartz cuvette. Samples were incubated at 75° C. for >3 min to ensure a stable temperature was reached. PfTrpB activity (kcat) was measured by monitoring tryptophan formation at 290 nm using Δe290=1.89 mM^−1·cm^−1.
The three TrpB homologs and their corresponding 0B2 variants were expressed and purified, and then their kinetic properties (kcat and KM of indole) were measured.

Structure (SMILES): c1ccc2[nH]ccc2c1 [indole]
- kcat ([1]; 75° C.): 1.1 s⁻¹
- increase in kcat ([1]; compared with PfTrpB): 3.5 fold
- Km ([1]; read-out: KM, indole, 75° C.): 14 µM
- kcat ([2]; 75° C.): 2.9 s⁻¹
- kcat increase ([2]; relative to PfTrpB): 9.4 fold
- kcat [3]: 1.04 ± 0.03 s⁻¹
- Km ([3]; read-out: KM indole): 63 ± 5 µM
- kcat ([4]; 60° C.): 0.51 s⁻¹
- increase in kcat ([4]; compared to wild type): 7 fold
